According to ChEMBL document CHEMBL3112491, “3-(5-)-Amino-o-diarylisoxazoles: regioselective synthesis and antitubulin activity” (2014):

Tests used:
Type in all cases: functional
[1] = Growth inhibition of human OVCAR5 cells after 48 hrs by sulforhodamine B assay; conditions: OVCAR-5, 48 h
MDA-MB-435 = experiment: Growth inhibition of human MDA-MB-435 cells after 48 hrs by sulforhodamine B assay; conditions: MDA-MB-435, 48 h
SK-OV-3 = experiment: Growth inhibition of human SKOV3 cells after 48 hrs by sulforhodamine B assay; conditions: SK-OV-3, 48 h
NCI-H322M = experiment: Growth inhibition of human NCI-H322M cells after 48 hrs by sulforhodamine B assay
OVCAR-8 = experiment: Growth inhibition of human OVCAR8 cells after 48 hrs by sulforhodamine B assay; conditions: OVCAR-8, 48 h
IGROV-1 = experiment: Growth inhibition of human IGROV1 cells after 48 hrs by sulforhodamine B assay; conditions: IGROV-1, 48 h
HCT-15 = experiment: Growth inhibition of human HCT15 cells after 48 hrs by sulforhodamine B assay; conditions: HCT-15, 48 h
SK-MEL-5 = experiment: Growth inhibition of human SK-MEL-5 cells after 48 hrs by sulforhodamine B assay; conditions: SK-MEL-5, 48 h
MOLT-4 = experiment: Growth inhibition of human MOLT4 cells after 48 hrs by sulforhodamine B assay; conditions: MOLT-4, 48 h
SF-268 = experiment: Growth inhibition of human SF268 cells after 48 hrs by sulforhodamine B assay; conditions: SF-268, 48 h
Paracentrotus lividus [2] = experiment: Antimitotic activity in sea urchin fertilized egg assessed as cleavage alteration treated at 8 to 20 mins post-fertilization measured at 2.5 to 5.5 hrs post-fertilization
NCI-H460 = experiment: Growth inhibition of human NCI-H460 cells after 48 hrs by sulforhodamine B assay; conditions: NCI-H460, 48 h
TK-10 = experiment: Growth inhibition of human TK10 cells after 48 hrs by sulforhodamine B assay; conditions: TK-10, 48 h
T47D = experiment: Growth inhibition of human T47D cells after 48 hrs by sulforhodamine B assay
COLO 205 = experiment: Growth inhibition of human COLO205 cells after 48 hrs by sulforhodamine B assay; conditions: COLO 205, 48 h
[3] = Growth inhibition of human RXF393 cells after 48 hrs by sulforhodamine B assay; conditions: RXF 393, 48 h
[4] = Growth inhibition of human HCC2998 cells after 48 hrs by sulforhodamine B assay; conditions: HCC 2998, 48 h
CAKI-1 = experiment: Growth inhibition of human CAKI-1 cells after 48 hrs by sulforhodamine B assay; conditions: CAKI-1, 48 h
Malme-3M = experiment: Growth inhibition of human MALME-3M cells after 48 hrs by sulforhodamine B assay
DU-145 = experiment: Growth inhibition of human DU145 cells after 48 hrs by sulforhodamine B assay; conditions: DU-145, 48 h
[5] = Growth inhibition of human SF539 cells after 48 hrs by sulforhodamine B assay; conditions: SF-539, 48 h
HL-60(TB) = experiment: Growth inhibition of human HL-60(TB) cells after 48 hrs by sulforhodamine B assay; conditions: HL-60, 48 h
NCI-H23 = experiment: Growth inhibition of human NCI-H23 cells after 48 hrs by sulforhodamine B assay; conditions: NCI-H23, 48 h
UACC-62 = experiment: Growth inhibition of human UACC62 cells after 48 hrs by sulforhodamine B assay; conditions: UACC-62, 48 h
KM12 = experiment: Growth inhibition of human KM12 cells after 48 hrs by sulforhodamine B assay; conditions: KM12, 48 h
HCT-116 = experiment: Growth inhibition of human HCT116 cells after 48 hrs by sulforhodamine B assay; conditions: HCT-116, 48 h
ACHN = experiment: Growth inhibition of human ACHN cells after 48 hrs by sulforhodamine B assay
MDA-MB-468 = experiment: Growth inhibition of human MDA-MB-468 cells after 48 hrs by sulforhodamine B assay; conditions: MDA-MB-468, 48 h
PC-3 = experiment: Growth inhibition of human PC3 cells after 48 hrs by sulforhodamine B assay; conditions: PC-3, 48 h
NCI-H226 = experiment: Growth inhibition of human NCI-H226 cells after 48 hrs by sulforhodamine B assay; conditions: NCI-H226, 48 h
SNB-75 = experiment: Growth inhibition of human SNB75 cells after 48 hrs by sulforhodamine B assay; conditions: SNB-75, 48 h
SR = experiment: Growth inhibition of human SR cells after 48 hrs by sulforhodamine B assay
SK-MEL-28 = experiment: Growth inhibition of human SK-MEL-28 cells after 48 hrs by sulforhodamine B assay; conditions: SK-MEL-28, 48 h
A498 = experiment: Growth inhibition of human A498 cells after 48 hrs by sulforhodamine B assay; conditions: A498, 48 h
CCRF-CEM = experiment: Growth inhibition of human CCRF-CEM cells after 48 hrs by sulforhodamine B assay
A549 = experiment: Growth inhibition of human A549/ATCC cells after 48 hrs by sulforhodamine B assay; conditions: A549, 48 h
[6] = Growth inhibition of human NCI-ADR-RES cells after 48 hrs by sulforhodamine B assay
SN12C = experiment: Growth inhibition of human SN12C cells after 48 hrs by sulforhodamine B assay
K562 = experiment: Growth inhibition of human K562 cells after 48 hrs by sulforhodamine B assay; conditions: K562, 48 h
OVCAR-3 = experiment: Growth inhibition of human OVCAR3 cells after 48 hrs by sulforhodamine B assay; conditions: OVCAR-3, 48 h
786-0 = experiment: Growth inhibition of human 786-0 cells after 48 hrs by sulforhodamine B assay; conditions: 786-0, 48 h
SW-620 = experiment: Growth inhibition of human SW620 cells after 48 hrs by sulforhodamine B assay; conditions: SW-620, 48 h
Paracentrotus lividus [7] = experiment: Antimitotic activity in sea urchin fertilized egg assessed as cleavage arrest treated at 8 to 20 mins post-fertilization measured at 2.5 to 5.5 hrs post-fertilization
NCI-H522 = experiment: Growth inhibition of human NCI-H522 cells after 48 hrs by sulforhodamine B assay; conditions: NCI-H522, 48 h
[8] = Growth inhibition of human UO31 cells after 48 hrs by sulforhodamine B assay; conditions: UO-31, 48 h
[9] = Growth inhibition of human Hs 578T cells after 48 hrs by sulforhodamine B assay
BT-549 = experiment: Growth inhibition of human BT549 cells after 48 hrs by sulforhodamine B assay; conditions: BT-549, 48 h
SF-295 = experiment: Growth inhibition of human SF295 cells after 48 hrs by sulforhodamine B assay; conditions: SF-295, 48 h
[10] = Growth inhibition of human OVCAR4 cells after 48 hrs by sulforhodamine B assay; conditions: OVCAR-4, 48 h
RPMI-8226 = experiment: Growth inhibition of human RPMI8226 cells after 48 hrs by sulforhodamine B assay; conditions: RPMI-8226, 48 h
[11] = Growth inhibition of human UACC257 cells after 48 hrs by sulforhodamine B assay; conditions: UACC-257, 48 h
MDA-MB-231 = experiment: Growth inhibition of human MDA-MB-231 cells after 48 hrs by sulforhodamine B assay; conditions: MDA-MB-231, 48 h
MCF7 = experiment: Growth inhibition of human MCF7 cells after 48 hrs by sulforhodamine B assay; conditions: MCF7, 48 h
Paracentrotus lividus [12] = experiment: Microtubule destabilizing activity in sea urchin free-swimming blastula assessed as embryo spinning treated at 9 to 10 hrs post-fertilization measured after 0.15 to 15 hrs
SNB-19 = experiment: Growth inhibition of human SNB19 cells after 48 hrs by sulforhodamine B assay; conditions: SNB-19, 48 h
M14 = experiment: Growth inhibition of human M14 cells after 48 hrs by sulforhodamine B assay; conditions: M14, 48 h
HOP-62 = experiment: Growth inhibition of human HOP62 cells after 48 hrs by sulforhodamine B assay; conditions: HOP-62, 48 h
HT-29 = experiment: Growth inhibition of human HT-29 cells after 48 hrs by sulforhodamine B assay; conditions: HT-29, 48 h
SK-MEL-2 = experiment: Growth inhibition of human SK-MEL-2 cells after 48 hrs by sulforhodamine B assay; conditions: SK-MEL-2, 48 h
LOX IMVI = experiment: Growth inhibition of human LOXIMVI cells after 48 hrs by sulforhodamine B assay
[13] = Growth inhibition of human EKVX cells after 48 hrs by sulforhodamine B assay
U-251 = experiment: Growth inhibition of human U251 cells after 48 hrs by sulforhodamine B assay; conditions: U-251, 48 h

COc1ccc(-c2noc(N)c2-c2cc(OC)c3c(c2)OCO3)cc1
GI50 [1]: 5010 nM
GI50 (MDA-MB-435): 237 nM
GI50 (SK-OV-3): 3410 nM
GI50 (NCI-H322M): 6660 nM
GI50 (OVCAR-8): 3620 nM
GI50 (IGROV-1): 4860 nM
GI50 (HCT-15): 620 nM
GI50 (SK-MEL-5): 3360 nM
GI50 (MOLT-4): 1280 nM
GI50 (SF-268): 5000 nM
EC (Paracentrotus lividus [2]): 0.2 µM
GI50 (NCI-H460): 2870 nM
GI50 (TK-10): 6360 nM
GI50 (T47D): 2750 nM
GI50 (COLO 205): 1850 nM
GI50 [3]: 2360 nM
GI50 [4]: 1960 nM
GI50 (CAKI-1): 2780 nM
GI50 (Malme-3M): 9660 nM
GI50 (DU-145): 3110 nM
GI50 [5]: 1690 nM
GI50 (HL-60(TB)): 1290 nM
GI50 (NCI-H23): 2820 nM
GI50 (UACC-62): 5100 nM
GI50 (KM12): 1580 nM
GI50 (HCT-116): 2440 nM
GI50 (ACHN): 6210 nM
GI50 (MDA-MB-468): 9660 nM
GI50 (PC-3): 3290 nM
GI50 (NCI-H226): 13700 nM
GI50 (SNB-75): 1810 nM
GI50 (SR): 454 nM
GI50 (SK-MEL-28): 6790 nM
GI50 (A498): 1310 nM
GI50 (CCRF-CEM): 1020 nM
GI50 (A549): 2730 nM
GI50 [6]: 563 nM
GI50 (SN12C): 4100 nM
GI50 (K562): 404 nM
GI50 (OVCAR-3): 2630 nM
GI50 (786-0): 5460 nM
GI50 (SW-620): 726 nM
EC (Paracentrotus lividus [7]): 2 µM
GI50 (NCI-H522): 1020 nM
GI50 [8]: 5900 nM
GI50 [9]: 2810 nM
GI50 (BT-549): 3400 nM
GI50 (SF-295): 2800 nM
GI50 [10]: 22800 nM
GI50 (RPMI-8226): 2910 nM
GI50 [11]: 6680 nM
GI50 (MDA-MB-231): 2350 nM
GI50 (MCF7): 798 nM
EC (Paracentrotus lividus [12]): >5 µM
GI50 (SNB-19): 20400 nM
GI50 (M14): 1300 nM
GI50 (HOP-62): 2850 nM
GI50 (HT-29): 1330 nM

COc1ccc(-c2c(-c3cc(OC)c4c(c3)OCO4)noc2N)cc1
GI50 (MDA-MB-435): < 10 nM
GI50 (SK-OV-3): 31.8 nM
GI50 (OVCAR-8): 58.5 nM
GI50 (IGROV-1): 99.7 nM
GI50 (SK-MEL-2): 25.9 nM
GI50 (LOX IMVI): 57.9 nM
GI50 [13]: 10700 nM
GI50 (U-251): 30.8 nM
GI50 (HCT-15): 48.2 nM
GI50 (SK-MEL-5): 29.8 nM
GI50 (MOLT-4): 71.4 nM
GI50 (SF-268): 148 nM
EC (Paracentrotus lividus [2]): 0.0005 µM
GI50 (NCI-H460): 35.2 nM
GI50 (T47D): 39.4 nM
GI50 (COLO 205): 34.1 nM
GI50 [3]: 22.3 nM
GI50 [4]: 118 nM
GI50 (DU-145): 47.2 nM
GI50 [5]: 38.1 nM
GI50 (HL-60(TB)): 35.1 nM
GI50 (NCI-H23): 37.8 nM
GI50 (UACC-62): 59.7 nM
GI50 (KM12): 18.1 nM
GI50 (HCT-116): 46.3 nM
GI50 (MDA-MB-468): 18.7 nM
GI50 (PC-3): 44 nM
GI50 (NCI-H226): 121 nM
GI50 (SNB-75): 33.9 nM
GI50 (SR): < 10 nM
GI50 (SK-MEL-28): 13.6 nM
GI50 (A498): 22 nM
GI50 (CCRF-CEM): 36.3 nM
GI50 (A549): 59.6 nM
GI50 [6]: 19.1 nM
GI50 (SN12C): 217 nM
GI50 (K562): 19.3 nM
GI50 (OVCAR-3): 21.9 nM
GI50 (786-0): 73.5 nM
GI50 (SW-620): 29.4 nM
EC (Paracentrotus lividus [7]): 0.002 µM
GI50 (NCI-H522): < 10 nM
GI50 [8]: 82.2 nM
GI50 [9]: 32.4 nM
GI50 (BT-549): 3920 nM
GI50 (SF-295): 22.8 nM
GI50 [10]: 114 nM
GI50 (RPMI-8226): 49.9 nM
GI50 (MDA-MB-231): 124 nM
GI50 (MCF7): 31.5 nM
EC (Paracentrotus lividus [12]): 0.05 µM
GI50 (SNB-19): 65.8 nM
GI50 (M14): 32.3 nM
GI50 (HOP-62): 30.2 nM
GI50 (HT-29): 34.6 nM
